Values quoted from earlier work in article PMC11189301, “Structure of the human outer kinetochore KMN network complex” (Nature Structural & Molecular Biology, 2024).

System: MIS12 complex
Parameters: method as in PMID 24530301
Conditions: compared with Nsl1 C-terminal peptide (residues 258–281); cited from earlier work

## Knl1: outer kinetochore protein Knl1; prior affinity data of ref 11
  affinity of Knl1 for the whole MIS12 complex, in words: only slightly higher than its affinity for a peptide modeled on the C terminus of Nsl1 alone (residues 258–281)
